{
  "source": "PubChem BioAssay (NCI)",
  "assay_in_all_cases": "NCI anticancer screen, dose series, 48 h",
  "key": {"[1]": {"tested_on": "MOLT-4 leukemia"}, "[2]": {"tested_on": "OVCAR-4 ovarian"}, "[3]": {"tested_on": "SNB-75 CNS"}, "[4]": {"tested_on": "HL-60(TB) leukemia"}, "[5]": {"tested_on": "SK-MEL-2 melanoma"}, "[6]": {"tested_on": "SF-539 CNS"}, "[7]": {"tested_on": "HOP-18 NSCLC"}, "[8]": {"tested_on": "SF-268 CNS"}, "[9]": {"tested_on": "SR leukemia"}, "[10]": {"tested_on": "RXF-631 renal"}, "[11]": {"tested_on": "NCI-H522 lung"}, "[12]": {"tested_on": "KM12 colon"}, "[13]": {"tested_on": "RPMI-8226 leukemia"}, "[14]": {"tested_on": "UACC-257 melanoma"}, "[15]": {"tested_on": "SK-MEL-28 melanoma"}, "[16]": {"tested_on": "HCC-2998 colon"}, "[17]": {"tested_on": "EKVX NSCLC"}, "[18]": {"tested_on": "HOP-62 NSCLC"}, "[19]": {"tested_on": "COLO 205 colon"}, "[20]": {"tested_on": "KM20L2 colon"}, "[21]": {"tested_on": "LXFL 529 NSCLC"}, "[22]": {"tested_on": "SW-620 colon"}, "[23]": {"tested_on": "SNB-19 CNS"}, "[24]": {"tested_on": "SK-OV-3 ovarian"}, "[25]": {"tested_on": "ACHN renal"}, "[26]": {"tested_on": "M14 melanoma"}, "[27]": {"tested_on": "A549 NSCLC"}, "[28]": {"tested_on": "M19-MEL melanoma"}, "[29]": {"tested_on": "MALME-3M melanoma"}, "[30]": {"tested_on": "DMS 114 small cell lung"}, "[31]": {"tested_on": "CCRF-CEM leukemia"}, "[32]": {"tested_on": "DMS 273 small cell lung"}, "[33]": {"tested_on": "RXF 393 renal"}, "[34]": {"tested_on": "NCI-H23 lung"}, "[35]": {"tested_on": "SN12C renal"}, "[36]": {"tested_on": "SF-295 CNS"}, "[37]": {"tested_on": "786-0 renal"}, "[38]": {"tested_on": "OVCAR-8 ovarian"}, "[39]": {"tested_on": "HCT-116 colon"}, "[40]": {"tested_on": "HCT-15 colon"}, "[41]": {"tested_on": "U251 CNS"}, "[42]": {"tested_on": "LOX IMVI melanoma"}, "[43]": {"tested_on": "SK-MEL-5 melanoma"}, "[44]": {"tested_on": "IGROV1 ovarian"}, "[45]": {"tested_on": "OVCAR-5 ovarian"}, "[46]": {"tested_on": "HOP-92 NSCLC"}, "[47]": {"tested_on": "HT29 colon"}, "[48]": {"tested_on": "A498 renal"}, "[49]": {"tested_on": "SNB-78 CNS"}, "[50]": {"tested_on": "UACC-62 melanoma"}, "[51]": {"tested_on": "UO-31 renal"}, "[52]": {"tested_on": "TK-10 renal"}, "[53]": {"tested_on": "CAKI-1 renal"}, "[54]": {"tested_on": "K-562 leukemia"}, "[55]": {"tested_on": "OVCAR-3 ovarian"}, "[56]": {"tested_on": "NCI-H460 lung"}, "[57]": {"tested_on": "NCI-H226 lung"}, "[58]": {"tested_on": "DLD-1 colon"}},
  "note": "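Results reflect a 48-hour exposure of cells in 96-well plates to compound at five concentrations. TGI marks complete inhibition of growth.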",
  "data": [
    {"compound": "COc1ccc(NC(=O)C(=O)NO)c(OC)c1", "values": [
      {"measurement": "TGI", "setting": "[1]", "result": 35.2, "unit": "µM"},
      {"measurement": "TGI", "setting": "[2]", "result": 37.7, "unit": "µM"},
      {"measurement": "TGI", "setting": "[3]", "result": 35.3, "unit": "µM"},
      {"measurement": "TGI", "setting": "[4]", "result": 43, "unit": "µM"},
      {"measurement": "TGI", "setting": "[5]", "result": 30.9, "unit": "µM"},
      {"measurement": "TGI", "setting": "[6]", "result": 36.3, "unit": "µM"},
      {"measurement": "TGI", "setting": "[7]", "result": 31.1, "unit": "µM"},
      {"measurement": "TGI", "setting": "[8]", "result": 32.1, "unit": "µM"},
      {"measurement": "TGI", "setting": "[9]", "result": 25.9, "unit": "µM"},
      {"measurement": "TGI", "setting": "[10]", "result": 57, "unit": "µM"},
      {"measurement": "TGI", "setting": "[11]", "result": 19, "unit": "µM"},
      {"measurement": "TGI", "setting": "[12]", "result": 34.2, "unit": "µM"},
      {"measurement": "TGI", "setting": "[13]", "result": 49.1, "unit": "µM"},
      {"measurement": "TGI", "setting": "[14]", "result": 38, "unit": "µM"},
      {"measurement": "TGI", "setting": "[15]", "result": 33.1, "unit": "µM"},
      {"measurement": "TGI", "setting": "[16]", "result": 35.8, "unit": "µM"},
      {"measurement": "TGI", "setting": "[17]", "result": 28.7, "unit": "µM"},
      {"measurement": "TGI", "setting": "[18]", "result": 35.1, "unit": "µM"},
      {"measurement": "TGI", "setting": "[19]", "result": 37.7, "unit": "µM"},
      {"measurement": "TGI", "setting": "[20]", "result": 33.3, "unit": "µM"},
      {"measurement": "TGI", "setting": "[21]", "result": 30.3, "unit": "µM"},
      {"measurement": "TGI", "setting": "[22]", "result": 34.5, "unit": "µM"},
      {"measurement": "TGI", "setting": "[23]", "result": 28.2, "unit": "µM"},
      {"measurement": "TGI", "setting": "[24]", "result": 33.7, "unit": "µM"},
      {"measurement": "TGI", "setting": "[25]", "result": 29.3, "unit": "µM"},
      {"measurement": "TGI", "setting": "[26]", "result": 29.9, "unit": "µM"},
      {"measurement": "TGI", "setting": "[27]", "result": 35.4, "unit": "µM"},
      {"measurement": "TGI", "setting": "[28]", "result": 38.9, "unit": "µM"},
      {"measurement": "TGI", "setting": "[29]", "result": 54.6, "unit": "µM"},
      {"measurement": "TGI", "setting": "[30]", "result": 29, "unit": "µM"},
      {"measurement": "TGI", "setting": "[31]", "result": 98, "unit": "µM"},
      {"measurement": "TGI", "setting": "[32]", "result": 35.3, "unit": "µM"},
      {"measurement": "TGI", "setting": "[33]", "result": 29.2, "unit": "µM"},
      {"measurement": "TGI", "setting": "[34]", "result": 34.1, "unit": "µM"},
      {"measurement": "TGI", "setting": "[35]", "result": 39.6, "unit": "µM"},
      {"measurement": "TGI", "setting": "[36]", "result": 27, "unit": "µM"},
      {"measurement": "TGI", "setting": "[37]", "result": 29.6, "unit": "µM"},
      {"measurement": "TGI", "setting": "[38]", "result": 33.3, "unit": "µM"},
      {"measurement": "TGI", "setting": "[39]", "result": 32.4, "unit": "µM"},
      {"measurement": "TGI", "setting": "[40]", "result": 31.2, "unit": "µM"},
      {"measurement": "TGI", "setting": "[41]", "result": 30.5, "unit": "µM"},
      {"measurement": "TGI", "setting": "[42]", "result": 27.2, "unit": "µM"},
      {"measurement": "TGI", "setting": "[43]", "result": 32.5, "unit": "µM"},
      {"measurement": "TGI", "setting": "[44]", "result": 32, "unit": "µM"},
      {"measurement": "TGI", "setting": "[45]", "result": 33.6, "unit": "µM"},
      {"measurement": "TGI", "setting": "[46]", "result": 35.7, "unit": "µM"},
      {"measurement": "TGI", "setting": "[47]", "result": 38.1, "unit": "µM"},
      {"measurement": "TGI", "setting": "[48]", "result": 39, "unit": "µM"},
      {"measurement": "TGI", "setting": "[49]", "result": 44.1, "unit": "µM"},
      {"measurement": "TGI", "setting": "[50]", "result": 28.9, "unit": "µM"},
      {"measurement": "TGI", "setting": "[51]", "result": 29.8, "unit": "µM"},
      {"measurement": "TGI", "setting": "[52]", "result": 37.1, "unit": "µM"},
      {"measurement": "TGI", "setting": "[53]", "result": 27.3, "unit": "µM"},
      {"measurement": "TGI", "setting": "[54]", "result": 56.4, "unit": "µM"},
      {"measurement": "TGI", "setting": "[55]", "result": 30.3, "unit": "µM"},
      {"measurement": "TGI", "setting": "[56]", "result": 33.4, "unit": "µM"},
      {"measurement": "TGI", "setting": "[57]", "result": 41.6, "unit": "µM"},
      {"measurement": "TGI", "setting": "[58]", "result": 41, "unit": "µM"}
    ]}
  ]
}
